Reference: ChEMBL document CHEMBL4619777, “A New Class of Dengue and West Nile Virus Protease Inhibitors with Submicromolar Activity in Reporter Gene DENV-2 Protease and Viral Replication Assays” (J Med Chem, 2020)
Active and inactive are the calls of the source.

Key:
[1] = target: Genome polyprotein (dengue virus type 2) (UniProt P29990); assay: Inhibition of Dengue virus serotype 2 NS2B-NS3 protease expressed in Escherichia coli BL21 lambda (DE3) cells at 50 uM using Abz-Nle-Lys-Arg-Arg-Ser-3-(NO2)Tyr as substrate preincubated for 15 mins followed by substrate addition and measured for 15 mins by FRET assay relative to control
Genome polyprotein [2] = target: T1, Genome polyprotein (dengue virus type 2, UniProt P29990); assay: Inhibition of Dengue virus serotype 2 NS2B-NS3 protease expressed in Escherichia coli BL21 lambda (DE3) cells using Abz-Nle-Lys-Arg-Arg-Ser-3-(NO2)Tyr as substrate preincubated for 15 mins followed by substrate addition and measured for 15 mins by FRET assay
[3] = target: Genome polyprotein (West Nile virus) (UniProt P06935); assay: Inhibition of West Nile virus NS2B-NS3 protease expressed in Escherichia coli BL21 lambda (DE3) cells at 50 uM using Abz-Gly-Leu-Lys-Arg-Gly-Gly-3-(NO2)Tyr as substrate preincubated for 15 mins followed by substrate addition measured for 15 mins by fluorimetric analysis relative to control
Genome polyprotein [4] = target: T2, Genome polyprotein (West Nile virus, UniProt P06935); assay: Inhibition of West Nile virus NS2B-NS3 protease expressed in Escherichia coli BL21 lambda (DE3) cells using Abz-Gly-Leu-Lys-Arg-Gly-Gly-3-(NO2)Tyr as substrate preincubated for 15 mins followed by substrate addition measured for 15 mins by fluorimetric analysis
[5] = Cytotoxicity against human HeLa cells assessed as reduction in cell viability measured after 24 hrs by celltiter-blue assay; assay type: cell-based
Trypsin [6] = target: T3, Trypsin (Homo sapiens, UniProt P07477+P07478+P35030); assay: Inhibition of trypsin (unknown origin) at 50 uM using Boc-Val-Pro-Arg-AMC as substrate preincubated for 15 mins followed by substrate addition and measured for 15 mins by fluorimetric assay relative to control; assay type: protein assay; details: for inhibition (INH): 0.25 h, 50 µM; for inhibition at 0.25 h, 50 µM: trypsin (unknown origin), probe Boc-Val-Pro-Arg-AMC
Prothrombin = Prothrombin (Homo sapiens, UniProt P00734); assay: Inhibition of thrombin (unknown origin) at 25 uM using Boc-Val-Pro-Arg-AMC as substrate preincubated for 15 mins followed by substrate addition and measured for 15 mins by fluorimetric assay; details: 0.25 h
[7] = target: Genome polyprotein (dengue virus type 2) (UniProt P29990); assay: Competitive inhibition of Dengue virus serotype 2 NS2B-NS3 protease expressed in Escherichia coli BL21 lambda (DE3) cells using varying levels of Abz-Nle-Lys-Arg-Arg-Ser-3-(NO2)Tyr as substrate by Cheng-Prusoff plot analysis
[8] = target: Genome polyprotein (dengue virus type 2) (UniProt P29990); assay: Inhibition of Dengue virus serotype 2 NS2B-NS3 protease transfected in human HeLa cells at 12.5 uM measured after 24 hrs by Renilla-luciferase reporter gene assay relative to control; assay type: cell-based
Genome polyprotein [9] = target: T1, Genome polyprotein; assay: Inhibition of Dengue virus serotype 2 NS2B-NS3 protease transfected in human HeLa cells measured after 24 hrs by Renilla-luciferase reporter gene assay; assay type: cell-based
Trypsin [10] = target: T3, Trypsin; assay: Inhibition of trypsin (unknown origin) using Boc-Val-Pro-Arg-AMC as substrate preincubated for 15 mins followed by substrate addition and measured for 15 mins by fluorimetric assay; assay type: protein assay
Huh-7 = assay: Cytotoxicity against human HuH7 cells assessed as reduction in cell viability at 12 uM measured after 48 hrs by celltiter-blue assay; assay type: cell-based; details: huh-7, 48 h
dengue virus type 2 [11] = assay: Antiviral activity against DENV2 infected in human HuH7 cells assessed as reduction in virus titer at 12.5 uM measured after 48 hrs relative to control; assay type: functional; details: Huh-7, 48 h
dengue virus type 2 [12] = assay: Antiviral activity against DENV2 infected in human HuH7 cells assessed as reduction in virus titer measured after 48 hrs; assay type: functional, organism-based; details: Huh-7, 48 h
[13] = Permeability of the compound assessed as drug level in donor plate at 200 uM measured after 5 hrs at pH 7.4 by PAMPA; assay type: ADME; details: pH 7.4, 5 h
[14] = target: Genome polyprotein (dengue virus type 2) (UniProt P29990); assay: Inhibition of Dengue virus serotype 2 NS2B-NS3 protease expressed in Escherichia coli BL21 lambda (DE3) cells at 50 uM using Abz-Nle-Lys-Arg-Arg-Ser-3-(NO2)Tyr as substrate preincubated for 15 mins followed by substrate addition and measured after 15 mins by HPLC analysis relative to control
Genome polyprotein [15] = target: T1, Genome polyprotein; assay: Inhibition of Dengue virus serotype 2 NS2B-NS3 protease expressed in Escherichia coli BL21 lambda (DE3) cells using Abz-Nle-Lys-Arg-Arg-Ser-3-(NO2)Tyr as substrate preincubated for 15 mins followed by substrate addition and measured after 15 mins by HPLC analysis
[16] = target: Genome polyprotein (West Nile virus) (UniProt P06935); assay: Inhibition of West Nile virus NS2B-NS3 protease expressed in Escherichia coli BL21 lambda (DE3) cells at 50 uM using Abz-Gly-Leu-Lys-Arg-Gly-Gly-3-(NO2)Tyr as substrate preincubated for 15 mins followed by substrate addition measured after 15 mins by HPLC analysis relative to control
Genome polyprotein [17] = target: T2, Genome polyprotein; assay: Inhibition of West Nile virus NS2B-NS3 protease expressed in Escherichia coli BL21 lambda (DE3) cells using Abz-Gly-Leu-Lys-Arg-Gly-Gly-3-(NO2)Tyr as substrate preincubated for 15 mins followed by substrate addition measured after 15 mins by HPLC analysis
[18] = target: Genome polyprotein (dengue virus type 2) (UniProt P29990); assay: Inhibition of Dengue virus serotype 2 NS2B-NS3 protease expressed in Escherichia coli BL21 lambda (DE3) cells measured after 1 hr by tryptophan fluorescence quenching method
[19] = target: Genome polyprotein (dengue virus type 2) (UniProt P29990); assay: Inhibition of Dengue virus serotype 2 NS2B-NS3 protease expressed in Escherichia coli BL21 lambda (DE3) cells at 50 uM measured after 1 hr in presence of DENV protease inhibitor aprotinin by tryptophan fluorescence quenching method
[20] = Permeability of the compound assessed as drug level in acceptor plate at 200 uM measured after 5 hrs at pH 7.4 by PAMPA; assay type: ADME; details: pH 7.4, 5 h
[21] = Permeability of the compound at 200 uM measured after 5 hrs at pH 7.4 by PAMPA; assay type: ADME; details: read-out: permeability
[22] = Permeability of the compound assessed as mass retention at 200 uM measured after 5 hrs at pH 7.4 by PAMPA; assay type: ADME; details: pH 7.4, 5 h
[23] = target: Genome polyprotein (West Nile virus) (UniProt P06935); assay: Competitive inhibition of West Nile virus NS2B-NS3 protease expressed in Escherichia coli BL21 lambda (DE3) cells using varying levels of Abz-Gly-Leu-Lys-Arg-Gly-Gly-3-(NO2)Tyr as substrate by Cheng-Prusoff plot analysis
dengue virus type 2 [24] = assay: Antiviral activity against DENV2 infected in human HuH7 cells assessed as reduction in virus titer at 10 uM measured after 48 hrs relative to control; assay type: functional; details: Huh-7, 48 h

T2 sequence (P06935 1371-1501 limits assumed): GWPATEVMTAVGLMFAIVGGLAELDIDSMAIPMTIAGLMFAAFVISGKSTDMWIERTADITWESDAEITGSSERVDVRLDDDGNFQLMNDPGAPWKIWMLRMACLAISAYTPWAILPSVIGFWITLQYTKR
T2 sequence (P06935 1502-2120 limits assumed): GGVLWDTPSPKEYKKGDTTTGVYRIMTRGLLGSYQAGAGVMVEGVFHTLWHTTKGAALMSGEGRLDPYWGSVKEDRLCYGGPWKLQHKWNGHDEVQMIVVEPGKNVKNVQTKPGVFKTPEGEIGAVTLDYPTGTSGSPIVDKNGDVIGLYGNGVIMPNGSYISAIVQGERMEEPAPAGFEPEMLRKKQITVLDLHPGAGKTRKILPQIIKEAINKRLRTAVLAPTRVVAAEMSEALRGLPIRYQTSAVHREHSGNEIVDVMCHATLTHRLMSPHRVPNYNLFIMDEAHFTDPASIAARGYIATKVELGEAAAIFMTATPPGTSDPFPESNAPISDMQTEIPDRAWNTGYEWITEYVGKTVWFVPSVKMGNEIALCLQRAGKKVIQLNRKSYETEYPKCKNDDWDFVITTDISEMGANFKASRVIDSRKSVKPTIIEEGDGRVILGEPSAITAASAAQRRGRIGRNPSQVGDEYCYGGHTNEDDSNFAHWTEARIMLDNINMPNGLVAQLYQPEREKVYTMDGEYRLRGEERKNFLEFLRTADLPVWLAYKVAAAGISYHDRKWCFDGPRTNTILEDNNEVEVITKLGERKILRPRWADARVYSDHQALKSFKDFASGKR
Genome polyprotein (West Nile virus), sequence (P06935 whole entry): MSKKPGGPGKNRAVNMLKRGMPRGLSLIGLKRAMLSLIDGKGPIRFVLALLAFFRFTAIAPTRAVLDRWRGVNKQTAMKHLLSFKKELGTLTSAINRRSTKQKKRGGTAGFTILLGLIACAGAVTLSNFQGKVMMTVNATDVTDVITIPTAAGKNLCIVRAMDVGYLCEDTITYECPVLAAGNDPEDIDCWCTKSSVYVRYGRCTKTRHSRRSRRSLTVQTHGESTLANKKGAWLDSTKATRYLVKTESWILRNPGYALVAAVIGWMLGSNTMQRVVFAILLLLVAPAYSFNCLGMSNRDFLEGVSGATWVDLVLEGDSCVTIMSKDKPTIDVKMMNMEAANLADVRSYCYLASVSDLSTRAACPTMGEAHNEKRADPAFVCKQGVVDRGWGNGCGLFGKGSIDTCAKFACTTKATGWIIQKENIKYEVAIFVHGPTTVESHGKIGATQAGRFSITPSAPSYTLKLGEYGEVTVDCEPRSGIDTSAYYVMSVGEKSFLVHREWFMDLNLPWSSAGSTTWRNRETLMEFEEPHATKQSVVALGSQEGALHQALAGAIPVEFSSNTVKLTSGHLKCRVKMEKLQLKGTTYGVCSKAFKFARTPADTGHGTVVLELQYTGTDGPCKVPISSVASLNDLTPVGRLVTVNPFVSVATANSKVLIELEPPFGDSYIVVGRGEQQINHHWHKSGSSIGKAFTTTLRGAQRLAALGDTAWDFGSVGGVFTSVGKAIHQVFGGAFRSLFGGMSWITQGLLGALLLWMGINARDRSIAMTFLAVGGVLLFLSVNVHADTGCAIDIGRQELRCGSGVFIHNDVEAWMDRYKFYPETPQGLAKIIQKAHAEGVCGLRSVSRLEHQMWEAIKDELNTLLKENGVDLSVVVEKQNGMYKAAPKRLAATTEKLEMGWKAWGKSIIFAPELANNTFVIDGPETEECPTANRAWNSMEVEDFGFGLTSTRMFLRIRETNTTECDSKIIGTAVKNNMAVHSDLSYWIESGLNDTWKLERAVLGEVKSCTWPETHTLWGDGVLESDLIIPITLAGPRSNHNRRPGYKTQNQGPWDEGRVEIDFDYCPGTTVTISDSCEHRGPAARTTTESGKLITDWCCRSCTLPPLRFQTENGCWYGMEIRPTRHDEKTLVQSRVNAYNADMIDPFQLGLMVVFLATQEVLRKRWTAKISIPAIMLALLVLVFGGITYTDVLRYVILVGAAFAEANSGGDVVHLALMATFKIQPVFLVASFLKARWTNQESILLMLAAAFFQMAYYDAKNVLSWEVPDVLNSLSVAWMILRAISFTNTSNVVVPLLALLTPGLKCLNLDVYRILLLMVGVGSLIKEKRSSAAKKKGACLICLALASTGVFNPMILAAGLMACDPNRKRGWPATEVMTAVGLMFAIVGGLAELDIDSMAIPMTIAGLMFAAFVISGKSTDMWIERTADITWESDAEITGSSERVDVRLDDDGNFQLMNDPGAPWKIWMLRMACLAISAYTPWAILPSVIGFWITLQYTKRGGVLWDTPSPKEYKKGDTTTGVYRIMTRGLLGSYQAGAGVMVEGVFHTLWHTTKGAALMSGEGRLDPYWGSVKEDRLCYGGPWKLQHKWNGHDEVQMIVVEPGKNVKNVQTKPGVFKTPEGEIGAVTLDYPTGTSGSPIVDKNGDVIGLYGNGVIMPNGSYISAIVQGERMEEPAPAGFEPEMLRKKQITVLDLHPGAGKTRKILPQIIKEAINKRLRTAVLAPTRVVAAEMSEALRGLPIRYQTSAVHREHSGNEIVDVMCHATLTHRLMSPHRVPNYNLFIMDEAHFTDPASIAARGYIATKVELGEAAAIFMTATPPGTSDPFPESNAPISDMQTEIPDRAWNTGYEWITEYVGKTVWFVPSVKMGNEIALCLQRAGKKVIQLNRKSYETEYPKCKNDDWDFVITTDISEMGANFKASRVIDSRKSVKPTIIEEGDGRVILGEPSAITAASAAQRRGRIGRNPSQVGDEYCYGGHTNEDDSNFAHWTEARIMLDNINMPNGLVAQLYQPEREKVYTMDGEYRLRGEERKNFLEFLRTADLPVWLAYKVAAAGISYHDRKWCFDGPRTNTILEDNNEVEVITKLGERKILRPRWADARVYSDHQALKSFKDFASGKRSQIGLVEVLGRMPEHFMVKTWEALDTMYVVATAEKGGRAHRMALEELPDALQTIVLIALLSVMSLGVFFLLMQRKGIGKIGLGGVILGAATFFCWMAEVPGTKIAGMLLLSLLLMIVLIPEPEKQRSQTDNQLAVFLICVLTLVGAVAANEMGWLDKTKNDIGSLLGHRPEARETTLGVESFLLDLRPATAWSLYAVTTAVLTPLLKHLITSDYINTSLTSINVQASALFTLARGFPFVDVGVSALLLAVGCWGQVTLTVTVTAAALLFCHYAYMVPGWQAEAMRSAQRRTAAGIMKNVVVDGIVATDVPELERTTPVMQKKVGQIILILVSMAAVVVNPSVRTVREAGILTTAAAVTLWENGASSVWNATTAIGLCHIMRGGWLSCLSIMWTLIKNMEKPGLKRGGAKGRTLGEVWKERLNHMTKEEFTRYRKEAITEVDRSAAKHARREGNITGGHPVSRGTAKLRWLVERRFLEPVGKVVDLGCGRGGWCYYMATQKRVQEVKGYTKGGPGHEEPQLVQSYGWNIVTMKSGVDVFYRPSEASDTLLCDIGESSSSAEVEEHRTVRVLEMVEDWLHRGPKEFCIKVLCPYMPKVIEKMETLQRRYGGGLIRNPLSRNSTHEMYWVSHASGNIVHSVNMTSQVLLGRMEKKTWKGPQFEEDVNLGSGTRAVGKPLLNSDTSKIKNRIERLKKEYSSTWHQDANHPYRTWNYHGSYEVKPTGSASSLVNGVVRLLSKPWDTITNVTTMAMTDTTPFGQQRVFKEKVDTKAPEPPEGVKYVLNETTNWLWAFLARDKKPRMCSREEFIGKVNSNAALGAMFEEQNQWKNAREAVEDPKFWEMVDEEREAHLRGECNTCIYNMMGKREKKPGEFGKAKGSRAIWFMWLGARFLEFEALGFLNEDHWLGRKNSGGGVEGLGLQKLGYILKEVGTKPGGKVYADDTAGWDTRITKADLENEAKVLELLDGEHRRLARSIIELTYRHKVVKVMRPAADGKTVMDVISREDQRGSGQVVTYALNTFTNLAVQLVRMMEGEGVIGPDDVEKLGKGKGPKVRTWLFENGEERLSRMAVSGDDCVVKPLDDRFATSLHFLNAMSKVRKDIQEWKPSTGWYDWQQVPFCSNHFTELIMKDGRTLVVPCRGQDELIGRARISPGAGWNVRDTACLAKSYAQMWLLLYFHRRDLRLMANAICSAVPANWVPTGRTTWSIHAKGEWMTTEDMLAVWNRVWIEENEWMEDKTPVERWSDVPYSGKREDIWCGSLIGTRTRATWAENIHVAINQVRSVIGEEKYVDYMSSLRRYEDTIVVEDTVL

Structure (SMILES) | inhibition [1] | IC50 (Genome polyprotein [2]) | inhibition [3] | IC50 (Genome polyprotein [4]) | CC50 at 24 h [5] | inhibition (INH) (Trypsin [6]) | inhibition (INH) (Prothrombin) | inhibition [8] | EC50 (Genome polyprotein [9]) | Activity (Huh-7) | inhibition at 12.5 µM (dengue virus type 2 [11]) | Drug uptake [20] | Drug uptake [13] | Papp at 5 h, 200 µM [21] | R% [22] | further results
CCCCCC(=O)N[C@H](C(=O)NCc1ccc(CN)cc1)c1ccc(OCc2ccccc2)cc1.O=C(O)C(F)(F)F | 94.9% | 4.9 µM | 84.8% | 8.2 µM | 4.8 µM | Not Active | Not Active | – | – | – | – | – | – | – | – | Ki (Genome polyprotein [2]): 3.8 µM; inhibition [7]: Active
CCCCCC(=O)N[C@@H](C(=O)NCc1ccc(NC(=N)N)cc1)c1ccc(OCc2ccccc2)cc1.O=C(O)C(F)(F)F | 49.9% | – | 34.2% | – | > 50 µM | – | Not Active | 54.9% | 9.9 µM | – | – | – | – | – | – | inhibition at 0.25 h, 50 µM (Trypsin [6]): > 50%; IC50 (Trypsin [10]): 44 µM
N=C(N)NCCC[C@H](NC(=O)c1ccccc1)C(=O)N[C@@H](CCCCN)C(=O)N[C@@H](C(N)=O)c1ccc(OCc2ccccc2)cc1 | – | 0.68 µM | 86.7% | 3.9 µM | > 100 µM | Not Active | Not Active | 40.9% | 16 µM | Non-Toxic | 52.3% | – | – | – | – | EC50 (dengue virus type 2 [12]): 8.6 µM; Drug uptake ([13]; BLD = below limit of detection): Bld
N=C(N)Nc1ccc(CNC(=O)[C@@H](NC(=O)c2ccc(-c3cccs3)s2)c2ccc(OCc3ccccc3)cc2)cc1.O=C(O)C(F)(F)F | – | – | – | – | > 50 µM | Not Active | Not Active | 52.6% | 9.3 µM | – | – | – | – | – | – | inhibition [14]: 99.7%; IC50 (Genome polyprotein [15]): 6.3 µM; inhibition [16]: 93.6%; IC50 (Genome polyprotein [17]): 6.5 µM; inhibition [18]: Dose-dependent effect; inhibition [19]: inactive
N=C(N)Nc1ccc(CNC(=O)[C@@H](NC(=O)c2ccc(Oc3ccccc3)cc2)c2ccc(OCc3ccccc3)cc2)cc1.O=C(O)C(F)(F)F | 99.5% | 4 µM | 101% | 6.2 µM | > 12.5 µM | Not Active | Not Active | 68.5% | 3 µM | Non-Toxic | 80.5% | 1.2 µM | 154.5 µM | 0.3 ×10⁻⁶ cm/s | 22.4% | EC50 (dengue virus type 2 [12]): 9.3 µM
CCCCCC(=O)N[C@H](C(=O)NCc1ccc(C(=N)N)cc1)c1ccc(OCc2ccccc2)cc1.O=C(O)C(F)(F)F | 20.6% | – | 39.4% | – | > 50 µM | – | Not Active | 49.1% | – | – | – | – | – | – | – | inhibition at 0.25 h, 50 µM (Trypsin [6]): > 50%; IC50 (Trypsin [10]): 45 µM
N=C(N)Nc1ccc(CNC(=O)[C@@H](NC(=O)Cc2ccc(-c3ccccc3)cc2)c2ccc(OCc3c(Cl)cccc3Cl)cc2)cc1.O=C(O)C(F)(F)F | 101% | 0.54 µM | 101% | 1.2 µM | > 50 µM | Not Active | Not Active | 31.7% | 39 µM | – | – | – | – | – | – | Ki (Genome polyprotein [2]): 0.46 µM; Ki (Genome polyprotein [4]): 1 µM; inhibition [7]: Active; inhibition [23]: Active; Drug uptake ([13]; BLD = below limit of detection): Bld
N=C(N)Nc1ccc(CNC(=O)[C@@H](NC(=O)c2ccc(-c3ccccc3)cc2)c2ccc(OCc3ccccc3)cc2)cc1.O=C(O)C(F)(F)F | 101% | 1.8 µM | 99.4% | 7.4 µM | > 50 µM | – | Not Active | 67% | 7.6 µM | – | – | – | – | – | – | inhibition at 0.25 h, 50 µM (Trypsin [6]): > 50%; IC50 (Trypsin [10]): 31 µM
CCCCCCCC(=O)N[C@H](C(=O)NCc1ccc(NC(=N)N)cc1)c1ccc(OCc2ccccc2)cc1.O=C(O)C(F)(F)F | 100% | 4.8 µM | 104% | 11 µM | > 50 µM | Not Active | Not Active | 71.4% | 0.83 µM | Non-Toxic | – | 1.5 µM | 164.5 µM | 0.3 ×10⁻⁶ cm/s | 17.3% | inhibition at 10 µM (dengue virus type 2 [24]): 57.7%; EC50 (dengue virus type 2 [12]): 7.2 µM
N=C(N)Nc1ccc(CNC(=O)[C@@H](NC(=O)c2ccc(OC3CCCCC3)cc2)c2ccc(OCc3ccccc3)cc2)cc1.O=C(O)C(F)(F)F | 98.2% | 5.9 µM | 99.7% | 8.3 µM | > 12.5 µM | Not Active | Not Active | 70.4% | 2.2 µM | Non-Toxic | 72.6% | 1.6 µM | 177.4 µM | 0.3 ×10⁻⁶ cm/s | 10.8% | –
CCCCCCC(=O)N[C@H](C(=O)NCc1ccc(NC(=N)N)cc1)c1ccc(OCc2ccccc2)cc1.O=C(O)C(F)(F)F | 97.2% | 6.8 µM | 101% | 17 µM | > 50 µM | Not Active | Not Active | 71% | 0.52 µM | Non-Toxic | 81% | 1.9 µM | 167.3 µM | 0.4 ×10⁻⁶ cm/s | 15.7% | –
